The values below come from patent US10513680B2, “Green microalgae lacking a functional DYRKP-1 gene, for use for increased production of feedstock” (COMMISSARIAT A L'ENERGIE ATOMIQUE ET AUX ENERGIES …, priority 2014, dated 2019).

One assay concerns std1 mutant. Put plainly: Inhibition of TAG and starch accumulation by LOX inhibitor in std1 mutant under nitrogen starvation. Type of assay: cell-based, Chlamydomonas reinhardtii. The settings on record: 5 mM catechol, after 6-day under nitrogen starvation (FIG. 14). How it is done:
FIGS. 14A and 14B depict the inhibition of TAG and starch accumulation in the mutant by LOX inhibitors.
FIG. 14A depicts starch accumulation.
FIG. 14B depicts TAG accumulation.
The starch and chlorophyll contents were measured according to (Chochois et al., 2010). One mL of culture was harvested, centrifuged at ˜20,000 g for 10 min, resuspended in 1 mL of methyl alcohol for chlorophyll extraction and stored at −80° C. The pellets were dried, and 400 μL of water were added. To solubilize starch, the samples were autoclaved setting “dry cycle”. Subsequently, starch was degraded to glucose by adding 200 μL amyloglucosidase solution (1 U/mL, Roche) and incubation at 55° C. for 1-2 h. Using an automated sugar analyzer (Ysi model 2700 select, Yellow Springs, Ohio, USA), glucose concentration were determined. Chlorophyll was extracted by methanol, and chlorophyll a and b were determined by measuring the absorbance at 653, 666 and 750 nm using UV-VIS spectrophotometer (SAFAS UVmc2 with the software SP2000).
C. reinhardtii cells (eq. to 2 mm^3 total cellular volume) were harvested by centrifuge at 1000 g for 2 min (at 4° C.). The cells were either frozen right away under −80° C., or quenched in hot isopropanol for immediate lipid extractions. Total cellular lipids were extracted using a mixture of hexane and isopropanol (Li-Beisson et al., 2010). […]

Another assay has as its system WT strains. Put plainly: Inhibition of TAG and starch accumulation by LOX inhibitor in WT strains under nitrogen starvation. Type of assay: cell-based, Chlamydomonas reinhardtii. The settings on record: in response to nitrogen starvation.

On to `Oc1ccccc1O` [catechol], for which the TAG accumulation entry in the assay with std1 mutant and in the assay with WT strains was “inhibited” in each case. The values for the starch accumulation entry with std1 mutant and in the assay with WT strains were “inhibited” and “no effect”, respectively.
